Assay results as given in patent US20040266826A1, “Thiophenylthiopyrane dioxides as mmp or tnf-alpha inhibitors” (priority 2001, published 2004).

System: not given
Assay: not given
Details: not given

| SMILES | melting point [°C] |
| --- | --- |
| O=C(O)C[C@]1(c2ccc(-c3ccc4cc(-c5cnco5)ccc4c3)s2)CCCCS1(=O)=O [Example 43, ((2S)-1,1-Dioxo-2-{5-[6-(oxazol-5-yl)naphthalen-2-yl]thiophen-2-yl}-3,4,5,6-tetrahydro-2H-thiopyran-2-yl)acetic acid] | 260 to 265 |
| CCOc1ccc2cc(-c3ccc([C@@]4(CC(=O)O)CCCCS4(=O)=O)s3)ccc2c1 [Example 48, {(2S)-1,1-Dioxo-2-[5-(6-ethoxynaphthalen-2-yl)thiophen-2-yl]-3,4,5,6-tetrahydro-2H-thiopyran-2-yl} acetic acid] | 219 to 222 |
| Cc1ccc2sc(-c3ccc([C@@]4(CC(=O)O)CCCCS4(=O)=O)s3)cc2c1 [Example 50, {(2S)-2-[5-(5-Methylbenzothiophen-2-yl)thiophen-2-yl]-1,1-dioxo-3,4,5,6-tetrahydro-2H-thiopyran-2-yl} acetic acid] | 209 to 213 |
| COc1ccc2sc(-c3ccc([C@@]4(CC(=O)O)CCCCS4(=O)=O)s3)cc2c1 [Example 51, {(2S)-2-[5-(5-Methoxybenzothiophen-2-yl)thiophen-2-yl]-1,1-dioxo-3,4,5,6-tetrahydro-2H-thiopyran-2-yl} acetic acid] | 215 to 218 |
| COc1ccc2cc(-c3ccc([C@@]4(CC(=O)O)CCCCS4(=O)=O)s3)sc2c1 [Example 52, {(2S)-2-[5-(6-Methoxybenzothiophen-2-yl)thiophen-2-yl]-1,1-dioxo-3,4,5,6-tetrahydro-2H-thiopyran-2-yl} acetic acid] | 232 to 235 |
| O=C(O)C[C@]1(c2ccc(-c3cc4cc(F)ccc4s3)s2)CCCCS1(=O)=O [Example 53, {(2S)-2-[5-(5-Fluorobenzothiophen-2-yl)thiophen-2-yl]-1,1-dioxo-3,4,5,6-tetrahydro-2H-thiopyran-2-yl} acetic acid] | 219 to 221 |
| CNC(=O)c1ccc2cc(-c3ccc([C@@]4(CC(=O)O)CCCCS4(=O)=O)s3)ccc2c1 [Example 54, [(2S)-1,1-Dioxo-2-(5-{6-[methylcarbamoyl)naphthalen-2-yl}thiophen-2-yl)-3,4,5,6-tetrahydro-2H-thiopyran-2-yl]acetic acid] | 230 to 232 |
| CC(C)Oc1ccc(-c2ccc([C@@]3(CC(=O)O)CCCCS3(=O)=O)s2)cc1 [Example 96, ((2S)-1,1-Dioxo-2-{5-[4-(1-methylethoxy)phenyl]-thiophen-2-yl}-3,4,5,6-tetrahydro-2H-thiopyran-2-yl) acetic acid] | 184 to 185 |
| CCCC#Cc1ccc([C@@]2(CC(=O)O)CCCCS2(=O)=O)s1 [Example 178, ((2S)-1,1-Dioxo-2-(5-[1-pentynyl]thiophen-2-yl}-3,4,5,6-tetrahydro-2H-thiopyran-2-yl)acetic acid] | 171 to 172 |
| O=C(O)C[C@]1(c2ccc(C#Cc3ccc(Cl)cc3)s2)CCCCS1(=O)=O [Example 179, ((2S)-2-{5-[(4-Chlorophenyl)ethynyl]thiophen-2-yl)-1,1-dioxo-3,4,5,6-tetrahydro-2H-thiopyran-2-yl)acetic acid] | 203 to 204 |
| Cc1ccc(C#Cc2ccc([C@@]3(CC(=O)O)CCCCS3(=O)=O)s2)cc1 [Example 180, ((2S)-1,1-Dioxo-2-{5-[(4-methylphenyl)ethynyl]-thiophen-2-yl}-3,4,5,6-tetrahydro-2H-thiopyran-2-yl)acetic acid] | 172 to 173 |

Molecular target: T1, human MMP-9 (Homo sapiens, UniProt P14780)
T1 construct: purchased Yagai, Japan
Assay: Inhibitory activity of human MMP-9 (commercial kit, degradation of FITC-labeled bovine type IV collagen)
Assay type: biochemical
Details: incubation 4 hours at 42° C.
Procedure: Inhibitory Activity of Human MMP-9
The inhibitory activity of test compounds against human MMP-9 were measured by using commercial kits (Yagai, Japan). Gelatinolytic activity was determined by monitoring the degradation of FITC-labeled bovine type IV collagen after incubation for 4 hours at 42° C. The amount of degraded collagen was estimated by measuring the fluorescence intensity at 495 nm (excitation) and 520 nm (emission).
Inhibitory activity of human MMP-9 as mentioned above.

T1 sequence (P14780 94-707): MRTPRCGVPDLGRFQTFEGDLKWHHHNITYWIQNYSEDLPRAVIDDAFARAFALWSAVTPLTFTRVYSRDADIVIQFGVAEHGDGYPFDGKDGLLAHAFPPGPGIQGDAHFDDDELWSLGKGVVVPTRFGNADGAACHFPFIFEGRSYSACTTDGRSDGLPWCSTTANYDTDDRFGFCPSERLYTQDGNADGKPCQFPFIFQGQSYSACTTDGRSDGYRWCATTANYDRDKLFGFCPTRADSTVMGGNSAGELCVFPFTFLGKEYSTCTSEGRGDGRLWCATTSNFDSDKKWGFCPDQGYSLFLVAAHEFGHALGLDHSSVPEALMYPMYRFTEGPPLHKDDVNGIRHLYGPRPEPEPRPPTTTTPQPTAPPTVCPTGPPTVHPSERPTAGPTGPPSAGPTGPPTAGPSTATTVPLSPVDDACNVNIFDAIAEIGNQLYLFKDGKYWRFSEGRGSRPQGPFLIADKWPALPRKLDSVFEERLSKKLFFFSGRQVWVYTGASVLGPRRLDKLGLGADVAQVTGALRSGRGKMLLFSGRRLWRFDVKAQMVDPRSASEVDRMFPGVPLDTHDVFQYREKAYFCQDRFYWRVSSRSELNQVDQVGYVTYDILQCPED

| SMILES | IC50 [nM] |
| --- | --- |
| O=C(O)C[C@]1(c2ccc(-c3ccc(-c4cnco4)cc3)s2)CCCCS1(=O)=O [Example 3, [(2S)-2-[5-[4-(5-Oxazolyl)phenyl]thiophen-2-yl]-1,1-dioxo-3,4,5,6-tetrahydro-2H-thiopyran-2-yl]acetic acid] | 16 |
| O=C(O)C[C@]1(c2ccc(-c3ccc(-c4ccsc4)cc3)s2)CCCCS1(=O)=O [Example 35, ((2S)-1,1-Dioxo-2-{5-[4-(thiophen-3-yl)phenyl]-thiophen-2-yl}-3,4,5,6-tetrahydro-2H-thiopyran-2-yl)acetic acid] | 2.77 |
| COc1ccc2sc(-c3ccc([C@@]4(CC(=O)O)CCCCS4(=O)=O)s3)cc2c1 [Example 51, {(2S)-2-[5-(5-Methoxybenzothiophen-2-yl)thiophen-2-yl]-1,1-dioxo-3,4,5,6-tetrahydro-2H-thiopyran-2-yl} acetic acid] | 4.56 |
| O=C(O)C[C@]1(c2ccc(-c3cc4ccc(F)cc4s3)s2)CCCCS1(=O)=O [Example 97, {(2S)-1,1-Dioxo-2-[5-(6-fluorobenzothiophen-2-yl)thiophen-2-yl]-3,4,5,6-tetrahydro-2H-thiopyran-2-yl}acetic acid] | 1.37 |
| O=C(O)C[C@]1(c2ccc(C#Cc3ccc(Cl)cc3)s2)CCCCS1(=O)=O [Example 179, ((2S)-2-{5-[(4-Chlorophenyl)ethynyl]thiophen-2-yl)-1,1-dioxo-3,4,5,6-tetrahydro-2H-thiopyran-2-yl)acetic acid] | 7.17 |
